Reference: patent publication US20230271953A1, “Novel compounds for treatment of diseases related to DUX4 expression” (Facio Intellectual Property B.V., priority 2019, published 2023)

system: DUX4; assay: DUX4 repression assay in primary FSHD cells (protocol of Example 2 of WO2019/115711); type: cell-based, human; conditions: incubated 72 hours, Table 2.3 (additional results), binned
Method: The DUX4 repression of compounds of general formula (I) was assayed following a known protocol (the protocol of Example 2 of WO2019/115711). Several compounds were incubated with primary FSHD cells for 72 hours. Results are shown in Table 2.2, showing DUX4 Count % inhibition.

| SMILES | DUX4 Count % inhibition |
| --- | --- |
| OC1CN(c2ccc3nc(-c4ccc(F)cc4)n(-c4ccncc4)c3n2)C1 [Compound 98, 1-[2-(4-fluorophenyl)-3-(pyridin-4-yl)-3H-imidazo[4,5-b]pyridin-5-yl]azetidin-3-ol] | fall outside of the bins |
| Fc1ccc(-c2nc3ccc(N4CC(N5CCCC5)C4)nc3n2-c2ccncc2)cc1 [Compound 106, 4-[2-(4-fluorophenyl)-5-[3-(pyrrolidin-1-yl)azetidin-1-yl]-3H-imidazo[4,5-b]pyridin-3-yl]pyridine] | fall outside of the bins |
| C[C@@H]1CNCCN1c1ccc2nc(-c3cccc(C#N)c3)n(-c3ccncc3)c2n1 [Compound 188-R, 3-{5-[(2R)-2-methylpiperazin-1-yl]-3-(pyridin-4-yl)-3H-imidazo[4,5-b]pyridin-2-yl}benzonitrile] | fall outside of the bins |
